≈ marks a conversion by molar mass, not a printed value.
Key:
Staphylococcus sp. = assay: In vitro antibacterial evaluation: minimum inhibitory concentration (MIC), broth dilution method; type: cell-based; conditions: 18 hours at 35° C.
Procedure, shortened: (§1)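 Broth dilution per NCCLS M7-A2 in Muller-Hinton II […], inoculum 5×10^5 CFU/mL, antibiotic tested over 64-0.06 μg/mL. MIC is taken as the lowest concentration that inhibits growth. Panel includes recent clinical isolates resistant to methicillin, penicillin and/or vancomycin.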

Enterococcus sp. = assay: as above; type: cell-based; conditions: 18 hours at 35° C.
Procedure, shortened: as §1

Escherichia coli = assay: as above; type: cell-based; conditions: 18 hours at 35° C.
Procedure, shortened: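 NCCLS M7-A2 broth dilution; Muller-Hinton II […]; 5×10^5 CFU/mL; 64-0.06 μg/mL. MIC = lowest concentration with no growth.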

Streptococcus sp. = assay: as above; type: cell-based; conditions: 18 hours at 35° C.
Procedure, shortened: as §1

[1] = system: Staphylococcus aureus-SMITH (GC 4543); assay: Acute lethal infection in mice (ED50); type: in vivo; conditions: female CD-1 mice, intraperitoneal challenge, intravenous dose 30 min. after infection, 7 day survival ratios
Procedure, shortened: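 Lethal systemic infection model: female CD-1 mice, 20 ± 1-2 g, intraperitoneal challenge. Single intravenous treatment 30 min after infection; 7-day survival, pooled from 3 tests, gives ED50.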

[2] = type: in vivo; conditions: mice, 20 mg/kg intravenously daily for 9 days, serum on day 10
Method: 20-day-old CD-1 mice were divided into a vehicle control group (5 mice) and a treatment group (5 mice). Samples of glycopeptide antibiotics were administered at 20 mg/kg intravenously daily for 9 days. Animals were necropsied on day 10 Sera were analyzed for BUN (blood urea nitrogen), creatinine, AST (aspartic aminotransferase), and ALT (alanine aminotransferase) by routine, standard, automated methods using an Hitachi 747 chemistry analyzer.

[3] = Anatomic pathology (heart and kidney histopathology) in mice; type: in vivo, CD-1 mice; conditions: 20 mg/kg intravenously daily for 9 days, microscopic histopathology on day 10
Procedure, shortened: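 Juvenile CD-1 mice (20 days old; 5 vehicle, 5 treated) received glycopeptide antibiotic 20 mg/kg i.v. daily for 9 days. Necropsied tissues formalin-fixed, paraffin-embedded, H&E stained and examined microscopically; findings graded slight to severe versus controls.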

[4] = broth dilution, inoculum 5×10^5 CFU/mL

COc1ccc2cc(COCC3OC(OC4C(CO)OC(Oc5ccc(CC6NC(=O)C(C(C)c7ccccc7)NC(=O)CNC(=O)C(CO)NC(=O)C(CC7CNC(=N)N7C7OC(CO)C(O)C(O)C7O)NC(=O)C(CC7CNC(=N)N7)NC6=O)cc5)C(O)C4O)C(O)C(O)C3O)ccc2c1 (stereo not drawn) [Example 245, Cyclo[3-(2-iminoimidazolidin-4-yl)alanyl-3-(3-hexopyranosyl-2-iminoimidazolidin-4-yl)-alanylserylglycyl-β-methylphenylalanyl-O-[4-O-[6-O-[(6-methoxy-2-naphthyl)methyl]-hexopyranosyl)hexopyranosyl]tyrosyl]]
MIC Coagulase Negative Staphylococcus (GC 4547) (Staphylococcus sp.; Coagulase Negative Staphylococcus (GC 4547)): 4 µg/mL (≈ 2.79 µM)
MIC Coagulase Negative Staphylococcus (GC 4548) (Staphylococcus sp.; Coagulase Negative Staphylococcus (GC 4548)): 2 µg/mL (≈ 1.4 µM)
MIC Coagulase Negative Staphylococcus (GC 4549) (Staphylococcus sp.; Coagulase Negative Staphylococcus (GC 4549)): 1 µg/mL (≈ 0.698 µM)
MIC Coagulase Negative Staphylococcus (GC 4551) (Staphylococcus sp.; Coagulase Negative Staphylococcus (GC 4551)): 8 µg/mL (≈ 5.58 µM)
MIC Coagulase Negative Staphylococcus (GC 6257) (Staphylococcus sp.; Coagulase Negative Staphylococcus (GC 6257)): 2 µg/mL (≈ 1.4 µM)
MIC Staphylococcus aureus (ATCC 29213) (Staphylococcus sp.; Staphylococcus aureus (ATCC 29213)): 4 µg/mL (≈ 2.79 µM)
MIC Staphylococcus aureus (GC 1131) (Staphylococcus sp.; Staphylococcus aureus (GC 1131)): 8 µg/mL (≈ 5.58 µM)
MIC Staphylococcus aureus (GC 3051) (Staphylococcus sp.; Staphylococcus aureus (GC 3051)): 4 µg/mL (≈ 2.79 µM)
MIC Staphylococcus aureus (GC 3053) (Staphylococcus sp.; Staphylococcus aureus (GC 3053)): 4 µg/mL (≈ 2.79 µM)
MIC Staphylococcus aureus (GC 4541) (Staphylococcus sp.; Staphylococcus aureus (GC 4541)): 4 µg/mL (≈ 2.79 µM)
MIC Staphylococcus aureus (GC 4542) (Staphylococcus sp.; Staphylococcus aureus (GC 4542)): 4 µg/mL (≈ 2.79 µM)
MIC Staphylococcus aureus (GC 4544) (Staphylococcus sp.; Staphylococcus aureus (GC 4544)): 8 µg/mL (≈ 5.58 µM)
MIC Staphylococcus aureus (GC 4545) (Staphylococcus sp.; Staphylococcus aureus (GC 4545)): 4 µg/mL (≈ 2.79 µM)
MIC Staphylococcus aureus-SMITH (GC 4543) (Staphylococcus sp.; Staphylococcus aureus-SMITH (GC 4543)): 4 µg/mL (≈ 2.79 µM)
MIC Staphylococcus haemolyticus (GC 4546) (Staphylococcus sp.; Staphylococcus haemolyticus (GC 4546)): 4 µg/mL (≈ 2.79 µM)
MIC Enterococcus avium (GC 4558) (Enterococcus sp.; Enterococcus avium (GC 4558)): 16 µg/mL (≈ 11.2 µM)
MIC Enterococcus faecalis (ATCC 29212) (Enterococcus sp.; Enterococcus faecalis (ATCC 29212)): 32 µg/mL (≈ 22.3 µM)
MIC Enterococcus faecalis (GC 2242) (Enterococcus sp.; Enterococcus faecalis (GC 2242)): 16 µg/mL (≈ 11.2 µM)
MIC Enterococcus faecalis (GC 2691) (Enterococcus sp.; Enterococcus faecalis (GC 2691)): 32 µg/mL (≈ 22.3 µM)
MIC Enterococcus faecalis (GC 3059) (Enterococcus sp.; Enterococcus faecalis (GC 3059)): 16 µg/mL (≈ 11.2 µM)
MIC Enterococcus faecalis (GC 4552) (Enterococcus sp.; Enterococcus faecalis (GC 4552)): 16 µg/mL (≈ 11.2 µM)
MIC Enterococcus faecalis (GC 4553) (Enterococcus sp.; Enterococcus faecalis (GC 4553)): 16 µg/mL (≈ 11.2 µM)
MIC Enterococcus faecalis (GC 4554) (Enterococcus sp.; Enterococcus faecalis (GC 4554)): 32 µg/mL (≈ 22.3 µM)
MIC Enterococcus faecalis (GC 6189) (Enterococcus sp.; Enterococcus faecalis (GC 6189)): 32 µg/mL (≈ 22.3 µM)
MIC Enterococcus faecium (GC 2243) (Enterococcus sp.; Enterococcus faecium (GC 2243)): 16 µg/mL (≈ 11.2 µM)
MIC Enterococcus faecium (GC 4556) (Enterococcus sp.; Enterococcus faecium (GC 4556)): 16 µg/mL (≈ 11.2 µM)
MIC Enterococcus faecium (GC 4557) (Enterococcus sp.; Enterococcus faecium (GC 4557)): 4 µg/mL (≈ 2.79 µM)
MIC Enterococcus faecalis (GC 2242) (Enterococcus sp.; [4]): 16 µg/mL (≈ 11.2 µM)
MIC Enterococcus faecalis (GC 2691) (Enterococcus sp.; [4]): 32 µg/mL (≈ 22.3 µM)
MIC Enterococcus faecalis (GC 3059) (Enterococcus sp.; [4]): 16 µg/mL (≈ 11.2 µM)
MIC Escherichia coli (ATCC 25922) (Escherichia coli; Escherichia coli (ATCC 25922)): 64 µg/mL (≈ 44.6 µM)
MIC Escherichia coli (GC 4559) (Escherichia coli; Escherichia coli (GC 4559)): 32 µg/mL (≈ 22.3 µM)
MIC Escherichia coli (GC 4560) (Escherichia coli; Escherichia coli (GC 4560)): 4 µg/mL (≈ 2.79 µM)
MIC Streptococcus agalactiae (GC 4564) (Streptococcus sp.; Streptococcus agalactiae (GC 4564)): 4 µg/mL (≈ 2.79 µM)
MIC Streptococcus pneumoniae (ATCC 6301) (Streptococcus sp.; Streptococcus pneumoniae (ATCC 6301)): 2 µg/mL (≈ 1.4 µM)
MIC Streptococcus pneumoniae (GC 1894) (Streptococcus sp.; Streptococcus pneumoniae (GC 1894)): 1 µg/mL (≈ 0.698 µM)
MIC Streptococcus pneumoniae (GC 4565) (Streptococcus sp.; Streptococcus pneumoniae (GC 4565)): 4 µg/mL (≈ 2.79 µM)
MIC Streptococcus pyogenes (GC 4563) (Streptococcus sp.; Streptococcus pyogenes (GC 4563)): 4 µg/mL (≈ 2.79 µM)
MIC Streptococcus agalactiae (GC 4564) (Streptococcus sp.; [4]): 4 µg/mL (≈ 2.79 µM)
MIC Streptococcus pneumoniae (ATCC 6301) (Streptococcus sp.; [4]): 2 µg/mL (≈ 1.4 µM)
MIC Streptococcus pneumoniae (GC 1894) (Streptococcus sp.; [4]): 1 µg/mL (≈ 0.698 µM)
MIC Streptococcus pneumoniae (GC 4565) (Streptococcus sp.; [4]): 4 µg/mL (≈ 2.79 µM)
MIC Streptococcus pyogenes (GC 4563) (Streptococcus sp.; [4]): 4 µg/mL (≈ 2.79 µM)
median effective dose (ED50), Staphylococcus aureus-SMITH (GC 4543) [1]: 4 mg/kg
Clinical Chemistry (Day 10) % of Control, BUN [2]: +160%
Anatomical Pathology (Day 10), Heart [3]: 0
Anatomical Pathology (Day 10), Kidney [3]: +++

— patent US8247211B2, “Glycopeptide antibiotics” (American Cyanamid Company, priority 2001, dated 2012)
